Assay results reported in patent publication US20080318792A1, “Extension of pollination period” (priority 2007, published 2008).

Assays:
[1] = tested on: sweet corn seed (cv. Silver Queen); assay: Germination of sweet corn seed on moist blotters at 15° C. after seed treatment; format: in vivo; settings: blotters 15° C.; for Coleoptile protrusion CGERM / Radicle protrusion RGERM: maximum by day 27
Description: ABA acid and three analogs were dissolved in ethanol to produce the desired doses. […] Aliquotes (250 μl) of ethanol solutions of the agents were added to 10 g samples of the seed and the seeds were agitated and dried overnight. Germination tests were conducted on moist blotters at 15° C. in petri dishes. Four replications of 10 seeds each were performed.
Radicle and coleoptile protrusion were counted approximately daily for 27 days. The maximum radical protrusion (RGERM) and maximum coleoptile protrusion (CGERM) were expressed as percentages from each dish. The daily counts were expressed as proportions of the protrusion maxima from each dish, and Gompertz curves were fitted to the protrusion data using SAS Proc NLIN. From the parameters of the models, median time to radicle protrusion (RT50), and median-time-to-coleoptile protrusion (CT50) were estimated for each dish. Analysis of variance was performed and means calculated for each of the four responses (RGERM, CGERM, RT50 and CT50).

[2] = tested on: corn inbred lines B91 and B95; assay: Field emergence and anthesis of inbred corn seed treated with ABA; format: in vivo
Description: Seed of inbred lines B91 and B95 was obtained from Iowa State University. These inbreds are from the BSCB1 heterotic group, and are representative of many male parents used in hybrid corn seed production. ABA in the form of the ammonium salt was applied at rates of 0, 25, 50 and 100 g/cwt (as free acid). Application was performed as described under Example 2 above, except the CF-Clear and Color Coat Red (Becker Underwood) were applied at 0.5 oz/cwt, and Maxim XL (Syngenta) was applied at 0.334 oz/cwt, using a slurry rate of 15 oz/cwt. The seed samples were mechanically planted in small plots of one five hundredth acre each at Woodstock, Ill., Stoughton, Wis. and Winnebago, Ill. Three plots of each treatment were planted at each location. Standard cultural practices for corn production were used. The plots were examined daily, and seedling emergence counted in each plot every day or two during the month after planting. Data were analyzed as described under Example 2 above.

[3] = Stoughton, inbred B91, ABA (ammonium salt) 25 g/cwt as free acid
[4] = Stoughton, inbred B91, ABA (ammonium salt) 50 g/cwt as free acid
[5] = Stoughton, inbred B91, ABA (ammonium salt) 100 g/cwt as free acid
[6] = Stoughton, inbred B95, ABA (ammonium salt) 25 g/cwt as free acid
[7] = Stoughton, inbred B95, ABA (ammonium salt) 50 g/cwt as free acid
[8] = Stoughton, inbred B95, ABA (ammonium salt) 100 g/cwt as free acid
[9] = Winnebago, inbred B91, ABA (ammonium salt) 25 g/cwt as free acid
[10] = Winnebago, inbred B91, ABA (ammonium salt) 50 g/cwt as free acid
[11] = Winnebago, inbred B91, ABA (ammonium salt) 100 g/cwt as free acid
[12] = Winnebago, inbred B95, ABA (ammonium salt) 25 g/cwt as free acid
[13] = Winnebago, inbred B95, ABA (ammonium salt) 50 g/cwt as free acid
[14] = Winnebago, inbred B95, ABA (ammonium salt) 100 g/cwt as free acid
[15] = Woodstock, inbred B91, ABA (ammonium salt) 25 g/cwt as free acid
[16] = Woodstock, inbred B91, ABA (ammonium salt) 50 g/cwt as free acid
[17] = Woodstock, inbred B91, ABA (ammonium salt) 100 g/cwt as free acid
[18] = Woodstock, inbred B95, ABA (ammonium salt) 25 g/cwt as free acid
[19] = Woodstock, inbred B95, ABA (ammonium salt) 50 g/cwt as free acid
[20] = Woodstock, inbred B95, ABA (ammonium salt) 100 g/cwt as free acid

With CC1=CC(=O)CC(C)(C)[C@@]1(O)/C=C/C(C)=C\C(=O)O [ABA, S-(+)-abscisic acid] the “Coleoptile protrusion CT50” value ([1]; dose 10 ppm) was 9.70 days, the “Radicle protrusion RT50” value ([1]; dose 10 ppm) was 5.99 days and the “Coleoptile protrusion CGERM” value ([1]; dose 10 ppm) was 80.0%. For the same compound, the “Radicle protrusion RGERM” value ([1]; dose 10 ppm) was 87.5%, the “Coleoptile protrusion CT50” value ([1]; dose 100 ppm) was 12.80 days and the “Radicle protrusion RT50” value ([1]; dose 100 ppm) was 7.28 days. For the same compound, the “Coleoptile protrusion CGERM” value ([1]; dose 100 ppm) was 65.0%, the “Radicle protrusion RGERM” value ([1]; dose 100 ppm) was 77.5% and the “Coleoptile protrusion CT50” value ([1]; dose 1000 ppm) was 18.44 days. The “Radicle protrusion RT50” value ([1]; dose 1000 ppm) was 8.58 days, the “Coleoptile protrusion CGERM” value ([1]; dose 1000 ppm) was 22.5% and the “Radicle protrusion RGERM” value ([1]; dose 1000 ppm) was 85.0%. For the same compound, the effect on anthesis ([2]; Stoughton and Winnebago, ABA 25-100 g/cwt) was “progressively delayed anthesis”, the Final emergence [2, 3] was 96.2% and the “Median time to anthesis” value [2, 3] was 79.2 days. The “Median time to emergence” value [2, 3] was 11.9 days, the Final emergence [2, 4] was 95.0% and the “Median time to anthesis” value [2, 4] was 80.1 days. For the same compound, the “Median time to emergence” value [2, 4] was 12.6 days, the Final emergence [2, 5] was 94.3% and the “Median time to anthesis” value [2, 5] was 79.8 days. For the same compound, the “Median time to emergence” value [2, 5] was 14.1 days, the Final emergence [2, 6] was 98.1% and the “Median time to anthesis” value [2, 6] was 81.8 days. The “Median time to emergence” value [2, 6] was 12.5 days, the Final emergence [2, 7] was 98.1% and the “Median time to anthesis” value [2, 7] was 82.4 days. The “Median time to emergence” value [2, 7] was 14.1 days, the Final emergence [2, 8] was 99.0% and the “Median time to anthesis” value [2, 8] was 81.3 days. For the same compound, the “Median time to emergence” value [2, 8] was 14.3 days, the Final emergence [2, 9] was 98.5% and the “Median time to anthesis” value [2, 9] was 74.4 days. For the same compound, the “Median time to emergence” value [2, 9] was 8.8 days, the Final emergence [2, 10] was 96.4% and the “Median time to anthesis” value [2, 10] was 75.1 days. For the same compound, the “Median time to emergence” value [2, 10] was 9.7 days, the Final emergence [2, 11] was 94.4% and the “Median time to anthesis” value [2, 11] was 76.4 days. The “Median time to emergence” value [2, 11] was 11.5 days, the Final emergence [2, 12] was 94.8% and the “Median time to anthesis” value [2, 12] was 79.8 days. The “Median time to emergence” value [2, 12] was 10.3 days, the Final emergence [2, 13] was 95.0% and the “Median time to anthesis” value [2, 13] was 79.5 days. For the same compound, the “Median time to emergence” value [2, 13] was 11.3 days, the Final emergence [2, 14] was 89.8% and the “Median time to anthesis” value [2, 14] was 80.8 days. The “Median time to emergence” value [2, 14] was 12.7 days, the Final emergence [2, 15] was 99.0% and the “Median time to emergence” value [2, 15] was 11.4 days. The Final emergence [2, 16] was 94.5%, the “Median time to emergence” value [2, 16] was 13.7 days and the Final emergence [2, 17] was 92.0%. The “Median time to emergence” value [2, 17] was 14.3 days, the Final emergence [2, 18] was 94.8% and the “Median time to emergence” value [2, 18] was 13.8 days. For the same compound, the Final emergence [2, 19] was 96.8%, the “Median time to emergence” value [2, 19] was 15.3 days and the Final emergence [2, 20] was 89.6%. The “Median time to emergence” value [2, 20] was 18.9 days, the “effect on final stand” value ([2]; any of the locations) was “did not significantly reduce final stand” and the “effect on emergence from the soil” value ([2]; every location, ABA 25-100 g/cwt) was “progressive and significant delay in emergence”.
